From the OPERA property sets (Mansouri et al. 2018)

conditions: 24.0 °C

SMILES | log10 OH rate constant (cm³/molecule/s)
c1cscn1 | -11.9
c1c[nH]cn1 | -10.4

same assay, conditions: 25.0 °C

SMILES | log10 OH rate constant (cm³/molecule/s)
C/C=N/O | -11.7
CCC | -11.9
Cc1cccc(C)c1 | -10.6
Cc1ccccc1 | -11.2
CCC(=O)O | -11.9
C1CCSC1 | -10.7
C=CC(=C)CCC=C(C)C | -9.67
CNC | -10.2
CC(=O)O | -12.1
C#CC#C | -10.7
OCCO | -11.1
C1CCCCCCC1 | -10.9
CCOCOCC | -10.8
COC(C)CCO (stereo unspecified) | -10.6
CC(F)F | -13.5
CC(C)(N)CO | -10.6
CCC(=O)CC | -11.7
O=CC=O | -10.9
C1COCCO1 | -11
C=CC=CC=C | -10.3
CCCCCCCCCCCCCC | -10.7
CC(C)C(C)(C)C | -11.4
C1COC1 | -11
OCC(F)(F)F | -13
CCCCCCC | -11.1

SMILES | log10 OH rate constant (cm³/molecule/s)
CCCCS | -10.3
Cc1ccc2ccccc2c1 | -10.3
C#CCC | -11.1
C1=CC2CCC1C2 | -10.3
CF | -13.8
C=CCCC=C | -10.2
CC(=O)OCC(C)C | -11.3
CCCCC(C)=O | -11
FC(F)(Cl)Cl | < -15.4
C=C(C)C=O | -10.5
C#C | -12.1
CC(C)CC=O | -10.6
ClC(Cl)Cl | -13
c1ccsc1 | -11
Cc1cccc(O)c1 | -10.2
CCCCCCCCC(C)=O | -10.9
COCC(C)=O | -11.2
CCCC(=O)CC | -11.2
c1cc[nH]c1 | -9.96
CC | -12.6
C=C=C(C)C | -10.2
CC=C=O | -10.2
CCOC=O | -12
ClC(Cl)=C(Cl)Cl | -12.8
C=C(C)C(=C)C | -9.91

SMILES | log10 OH rate constant (cm³/molecule/s)
CC(C)=C(C)C | -9.96
CCC=O | -10.7
CC(C)C(=O)C(C)C | -11.3
C=CC=O | -10.7
C=C | -11.1
CC(C)(C)O | -12
c1ccoc1 | -10.4
CCCS | -10.3
BrCCBr | -12.6
FC(Cl)Cl | -13.5
CCOC(C)=O | -11.8
CC(C)COCC(C)C | -10.6
CCC(C)(C)C | -11.6
COC(C)OC | -11.1
C=CC(=C)C | -10
c1ccc2c(c1)CCO2 | -10.4
Clc1ccc(Cl)cc1 | -12.5
CC(=O)C(C)=O | -12.6
CCCCCCCCCCCCCCCC | -10.6
CBr | -13.4
O=C1CCC1 | -12.1
FC(F)(F)c1ccc(Cl)cc1 | -12.6
CN(C)C | -10.2
CC(C)=C=O | -9.97
CC(=O)C(F)(F)F | -13.8

SMILES | log10 OH rate constant (cm³/molecule/s)
CNN | -10.2
CC(C)C1CC1 | -11.5
CCC(O)CC | -10.9
FC(F)(F)c1ccccc1 | -12.3
CC(C)C(C)C | -11.2
C=C=CCC | -10.4
Cc1cccc2ccccc12 | -10.3
Cc1ccccc1O | -10.4
CN(C)CCO | -10
CCOCCOCCOCC | -10.6
CCCCC | -11.4
CCCC(C)O (stereo unspecified) | -10.9
C1=CC=CCC=C1 | -10
C/C=C/C=O | -10.4
C1CC2CCC1CC2 | -10.8
CC1CCCCC1 | -11
CCC(C)=O | -11.9
c1ccccc1 | -11.9
C=C(CCl)CCl | -10.5
Clc1cccc(Cl)c1 | -12.1
c1ccc2c(c1)CCCC2 | -10.5
Clc1ccc(-c2ccccc2)cc1 | -11.4

same assay, conditions: 26.0 °C

SMILES | log10 OH rate constant (cm³/molecule/s)
C=COC | -10.5

same assay, conditions: 27.0 °C

SMILES | log10 OH rate constant (cm³/molecule/s)
CCN | -10.6
